The values that follow come from patent publication US5510366A, “Indole derivatives, salts thereof, and congestive heart failure therapeutic agents comprising the same” (Kowa Co., Ltd., priority 1993, dated 1996).

Where a name gives a salt, the structure may show the parent alone.

In one assay the test system is atrium specimen. The experiment in a line: Inotropic action in atrium specimen and anti-chronotropic action in guinea pigs. Particulars: Cavia porcellus; guinea pig atrium; 10^-5 M; "light atrium", left atrium stimulated at 1 Hz; read-out: Rate contraction increase (%). On the procedure: <Inoropic action in atrium specimen and anti-chronotropic action in guinea pigs>
After bruising on the head, guinea pigs were dehematized by sectioning carotid arteries and their heart was enucleated. Right and left atriums were taken out. These atriums were suspended in Krebs-Henseleit solution wherein 95% O2-5 % CO2 was bubbled. The tension was measured by a strain gauge and recorded via an amplifier. Pulsation at the right atrium was counted via a tachometer to determine the heart rate. Electric stimulation, twice a magnitude of the ceiling value at 1 Hz, 5 msec, was given to the left atrium. The test compound was administered at an interval of 5 minutes.
The results, shown in Table 2, indicate the rate of contraction increase of the light atrium at a dose of 10^-5 M of the test compound.
With `CC[C@H]1c2cc(C)c3c(c2O[C@H]1CN)C(C)(C)C(=O)N3` (relative stereo) [Example 7 (6)(b), (2R* ,3S*)-2-aminomethyl-3-ethyl-2,3,7,8-tetrahydro-5,8,8-trimethyl-6H-furo 2,3-e!indol-7-one.cndot.hydrochloride], the activation at 10 µM was 27%.
With `Cc1cc2c(c3c1NC(=O)C3(C)C)OC(CN1CCCCC1)C2` (centres unmarked) [Example 19, 2-(1-Piperidinyl)methyl-2,3,7,8-tetrahydro-5,8,8-trimethyl-6H-furo 2,3-e!in dol-7-one.cndot.hydrochloride], the activation at 10 µM stood at 28%.
Still for that read-out and setting: the value for `CCCCCCc1cc2c(c3c1NC(=O)C3(C)C)OC(CN)C2` (centres unmarked) [Example 25 (9), 2-Aminomethyl-8,8-dimethyl-5-n-hexyl-2,3,7,8-tetrahydro-6H-furo 2,3-e!indol-7-one.cndot.hydrochloride] was 46%.
Still for that read-out and setting: the same measure for `Cc1c(C)c2c(c3c1CC(CN)O3)C(C)(C)C(=O)N2` (centres unmarked) [Example 30 (8)HCl, 2-Aminomethyl-2,3,7,8-tetrahydro-4,5,8,8-tetramethyl-6H-furo 2,3-e!indol-7-one.cndot.hydrochloride]: 28%.
Still for that read-out and setting: the value for `Cc1cc2c(c3c1NC(=O)C3(C)C)OC(CN)C2` (centres unmarked) [Example 1 (9), 2-Aminomethyl-2,3,7,8-tetrahydro-5,8,8-trimethyl-6H-furo 2,3-e!indol-7-onehydrochloride] was 13%; that for `Cc1cc2c(c3c1NC(=O)C3(C)C)O[C@@](C)(CN)[C@@H]2C` (relative stereo) [Example 55 (B isomer), (2R*,3R*)-2-aminomethyl-2,3,5,8,8-pentamethyl-2,3,7,8-tetrahydro-6H-furo 2 ,3-e!indol-7one.cndot.hydrochloride] was 24%.
Regarding `CNCC1Cc2cc(C)c3c(c2O1)C(C)(C)C(=O)N3` (centres unmarked) [Example 14, 2-Methylaminomethyl-2,3,7,8-tetrahydro-5,8,8-trimethyl-6H-furo 2,3-e!indol-7-one.cndot.hydrochloride], the activation at 10 µM is 20%.
The same measure, in the same setting: the value for `Cc1cc2c(c3c1NC(=O)C3(C)C)OC(C)(CN)C2` (centres unmarked) [Example 2 (8), 2-Aminomethyl-2,3,7,8-tetrahydro-2,5,8,8-tetramethyl-6H-furo 2,3-e!indol-7-one.cndot.hydrochloride] was 23%.

Another assay relates to ventricular fibrillation. The experiment in a line: Antiarrhythmic action against chloroform in mice (suppression of ventricular fibrillation). In kind it is in vivo. Particulars: Mus musculus, 20 min, 100 mg/kg, 20 minutes before chloroform, read-out: Rate of suppression (%) of ventricular fibrillation. On the procedure:
<Antiarrhythmic action against chloroform in mice>
A test compound was administered to mice at a dose of 100 mg/kg. After 20 minutes, mice were placed in a pot filled with chloroform. Mice were taken out immediately after respiratory arrest. Electrocardiogram was recorded at the 11th induction, and ventricular tachycardia, ventricular fibrillation, and the time until cardiac arrest were measured.
Take `Cc1cc2c(c3c1NC(=S)C3(C)C)O[C@@H](CN)[C@@H]2C` (relative stereo) [Example 35, (2R*,3R*)-2-aminomethyl-2,3,7,8-tetrahydro-3,5,8,8-tetramethyl-6H-furo 2,3-e!indol-7-thione.cndot.hydrochloride]: the inhibition in vivo at 100 mg/kg was found to be 100%.
On to `Cc1cc2c(c3c1NC(=O)C3(C)C)OC(CNCc1ccccc1)C2` (centres unmarked) [Example 15, 2-Benzylaminomethyl-2,3,7,8-tetrahydro-5,8,8-trimethyl-6H-furo 2,3-e!indol-7-one.cndot.hydrochloride], for which the inhibition in vivo at 100 mg/kg was determined as 100%.
Still for that read-out and setting: the same measure for `Cc1cc2c(c3c1NC(=O)C3(C)C)OC(Cn1ccnc1)C2` (centres unmarked) [Example 16, 2-(1-Imidazolyl)methyl-2,3,7,8-tetrahydro-5,8,8-trimethyl-6H-furo 2,3-e!indol-7-one.cndot.hydrochloride]: 90%.
Same read-out and setting: the value for `CCCCCCc1cc2c(c3c1NC(=O)C3(C)C)OC(CN)C2` (centres unmarked) [Example 25 (9), 2-Aminomethyl-8,8-dimethyl-5-n-hexyl-2,3,7,8-tetrahydro-6H-furo 2,3-e!indol-7-one.cndot.hydrochloride] was 100%.
As for `Cc1cc2c(c3c1NC(=O)C3(C)C)OC(CN(C)C)C2` (centres unmarked) [Example 17, 2-Dimethylaminomethyl-2,3,7,8-tetrahydro-5,8,8-trimethyl-6H-furo 2,3-e!indol-7-one.cndot.hydrochloride], the inhibition in vivo at 100 mg/kg was 100%.
On the same count and under the same terms, the value for `CCCCc1cc2c(c3c1NC(=O)C3(C)C)OC(CN)C2` (centres unmarked) [Example 28 (9)HCl, 2Aminomethyl-5-n-butyl-8,8-dimethyl-2,3,7,8-tetrahydro-6H-furo 2,3-e!indol-7-one.cndot.hydrochloride] was 90%; that for `CCOC(=O)c1cc2c3c(ccc2[nH]1)CC(CN)O3` (centres unmarked) [Example 47 (5), 2-Aminomethyl-2,3-dihydro-7-ethoxycarbonyl-6H-furo 2,3-e!indole.cndot.hydrochloride] was 90%.

The same assay, now with this note: Mus musculus, 20 min, Dose: 30 mg/kg, 20 minutes before chloroform, read-out: Rate of suppression (%) of ventricular fibrillation.
On to `Cc1cc2c(c3c1NC(=O)C3(C)C)O[C@@](C)(CN)[C@@H]2C` (relative stereo) [Example 55 (B isomer), (2R*,3R*)-2-aminomethyl-2,3,5,8,8-pentamethyl-2,3,7,8-tetrahydro-6H-furo 2 ,3-e!indol-7one.cndot.hydrochloride], for which the inhibition in vivo at 30 mg/kg stood at 100%.

The test system of a further assay is hind-leg blood flow. The experiment in a line: Action on hind-leg blood flow in anesthetized dogs. In kind it is in vivo, Hybrid adult dogs. The conditions noted are these: 100 μg into femoral artery. On the procedure:
<Action on hind-leg blood flow in anesthetized dogs>
Hybrid adult dogs were anesthetized by intravenous injection of 30 mg/kg of sodium pentobarbital. After administration of heparin, an extracorporeal circulation circuit was formed in femoral artery. The blood flows at hind-legs were measured by fixing an electromagnetic blood flow meter probe in the circuit. The test compound at a dose of 100 μg was administered into femoral artery via a tube provided in the circuit. The results in Table 3 show the rate of blood flow increase.
In the case of `Cc1cc2c(c3c1NC(=O)C3(C)C)OC(CN)C2.Cl` (centres unmarked) [Example 1 (a), 2-Aminomethyl-2,3,7,8-tetrahydro-5,8,8-trimethyl-6H-furo 2,3-e!indol-7-onehydrochloride], the “Rate of blood flow increase (%)” value is reported as 192%.

The assay is the same for the next values; noted with them: Canis lupus familiaris, 100 μg into femoral artery, read-out: Rate of blood flow increase (%).
Consider `Cc1cc2c(c3c1NC(=O)C3(C)C)OC(Cn1ccnc1)C2` (centres unmarked) [Example 16, 2-(1-Imidazolyl)methyl-2,3,7,8-tetrahydro-5,8,8-trimethyl-6H-furo 2,3-e!indol-7-one.cndot.hydrochloride], for which the change in vivo at 0.1 mg worked out at 90%.
Same read-out and setting: the value for `Cc1cc2c(c3c1NC(=O)C3(C)C)OCC2CN` (centres unmarked) [Example 13 (3), 3-Aminomethyl-2,3,7,8-tetrahydro-5,8,8-trimethyl-6H-furo 2,3-e!indol-7-one.cndot.hydrochloride] was 55%; that for `CCc1cc2c(c3c1NC(=O)C3(C)C)OC(CN)C2` (centres unmarked) [Example 26 (6), 2-Aminomethyl-8,8-dimethyl-5-ethyl-2,3,7,8-tetrahydro-6H-furo 2,3-e!indol-7-one.cndot.hydrochloride] was 216%.
On the same count and under the same terms, the value for `COc1ccc(C(=O)N2CCN(CC3Cc4cc(C)c5c(c4O3)C(C)(C)C(=O)N5)CC2)cc1OC` (centres unmarked) [Example 23, 2-4-(3,4-dimethoxybenzoyl)-1-piperadinyl!methyl-2,3,7,8-tetrahydro-5,8,8-trimethyl-6H-furo 2,3-e!indol-7-one.cndot.hydrochloride] was 81%.
Same read-out and setting: the value for `Cc1cc2c(c3c1NC(=O)C3(C)C)O[C@@H](CN)[C@@H]2C` (relative stereo) [Example 3 (5) (Former component), (2R*,3R*)-2-aminomethyl-2,3,7,8-tetrahydro-3,5,8,8-tetramethyl-6H-furo 2,3-e!indol-7-one.cndot.hydrochloride] was 128%.
For the compound `CCCCNCC1Cc2cc(C)c3c(c2O1)C(C)(C)C(=O)N3` (centres unmarked) [Example 18, 2-n-Butylaminomethyl-2,3,7,8-tetrahydro-5,8,8-trimethyl-6H-furo 2,3-e!indol-7-one.cndot.hydrochloride], the change in vivo at 0.1 mg came out at 145%.
Still for that read-out and setting: the value for `Cc1cc2c(c3c1NC(=O)C3(C)C)OC(CN1CCN(Cc3ccccc3)CC1)C2` (centres unmarked) [Example 20, 2-(4-Benzyl-1-piperadinyl)methyl-2,3,7,8-tetrahydro-5,8,8-trimethyl-6H-furo 2,3-e!indol-7-one.cndot.dihydrochloride] was 96%; that for `Cc1cc2c(c3c1NC(=O)C3(C)C)OC(CN1CCNCC1)C2` (centres unmarked) [Example 22, 2-(1-Piperadinyl)methyl-2,3,7,8-tetrahydro-5,8,8-trimethyl-6H-furo 2,3-e!in dol-7-one.cndot.dihydrochloride] was 121%.
Turning to `Cc1cc2c(c3c1NC(=O)C3(C)C)O[C@@](C)(CN)[C@@H]2C` (relative stereo) [Example 55 (B isomer), (2R*,3R*)-2-aminomethyl-2,3,5,8,8-pentamethyl-2,3,7,8-tetrahydro-6H-furo 2 ,3-e!indol-7one.cndot.hydrochloride], the change in vivo at 0.1 mg stood at 55%.
